Reference: ChEMBL document CHEMBL4602738, “Looking toward the Rim of the Active Site Cavity of Druggable Human Carbonic Anhydrase Isoforms” (ACS Med Chem Lett, 2020)

Columns and labels:
Carbonic anhydrase 9 = Carbonic anhydrase 9 (Homo sapiens, UniProt Q16790)
Description: Inhibition of human CA9 preincubated for 15 mins by stopped-flow carbon dioxide hydration assay

Carbonic anhydrase 2 = Carbonic anhydrase 2 (Homo sapiens, UniProt P00918); assay: Inhibition of human CA2 preincubated for 15 mins by stopped-flow carbon dioxide hydration assay

Structure (SMILES)	Ki (Carbonic anhydrase 9) [nM]	Ki (Carbonic anhydrase 2) [nM]
Nc1ccccc1C(=O)N1CCN(C(=O)c2ccc(S(N)(=O)=O)cc2)CC1	19.1	4.1
NS(=O)(=O)c1ccc(C(=O)N2CCN(C(=O)c3ccc(F)cc3)CC2)cc1	332	32.4
COc1cccc(C(=O)N2CCN(C(=O)c3ccc(S(N)(=O)=O)cc3)CC2)c1	360	36.3
NS(=O)(=O)c1ccc(C(=O)N2CCN(C(=O)c3ccc([N+](=O)[O-])cc3)CC2)cc1	11.2	23.9
NS(=O)(=O)c1ccc(C(=O)N2CCN(C(=O)c3ccc(Cl)cc3)CC2)cc1	29.2	7.2
NS(=O)(=O)c1ccc(C(=O)N2CCN(C(=O)c3ccc(Br)cc3)CC2)cc1	8	4.4
COc1ccccc1C(=O)N1CCN(C(=O)c2ccc(S(N)(=O)=O)cc2)CC1	250	19.8
NS(=O)(=O)c1ccc(C(=O)N2CCN(C(=O)c3ccccc3[N+](=O)[O-])CC2)cc1	9.8	42.4
Nc1ccc(C(=O)N2CCN(C(=O)c3ccc(S(N)(=O)=O)cc3)CC2)cc1	14.3	78.8
NS(=O)(=O)c1ccc(C(=O)N2CCN(C(=O)c3cccc([N+](=O)[O-])c3)CC2)cc1	2.2	28.6
NS(=O)(=O)c1ccc(C(=O)N2CCN(C(=O)c3ccccc3Cl)CC2)cc1	62.2	–

Further lines, results first:

Ki (Carbonic anhydrase 9) [nM]	Ki (Carbonic anhydrase 2) [nM]	Structure (SMILES)
3.8	0.41	NS(=O)(=O)c1ccc(C(=O)N2CCN(C(=O)c3cccc(F)c3)CC2)cc1
54.4	22.5	NS(=O)(=O)c1ccc(C(=O)N2CCN(C(=O)c3cccc(Cl)c3)CC2)cc1
60.4	3	NS(=O)(=O)c1ccc(C(=O)N2CCN(C(=O)c3ccccc3Br)CC2)cc1
16.2	0.6	NS(=O)(=O)c1ccc(C(=O)N2CCN(C(=O)c3cccc(Br)c3)CC2)cc1
15.2	51.1	Nc1cccc(C(=O)N2CCN(C(=O)c3ccc(S(N)(=O)=O)cc3)CC2)c1
37.1	–	NS(=O)(=O)c1ccc(C(=O)N2CCN(C(=O)c3ccccc3)CC2)cc1
68.7	28.4	NS(=O)(=O)c1ccc(C(=O)N2CCN(C(=O)c3ccccc3F)CC2)cc1
